Experimental data reported in PubChem BioAssay (NCI).
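How tested: cells in 96-well plates exposed to compound for 48 hours at five concentrations. GI50 is the concentration that inhibits growth by half. TGI denotes the concentration required for complete inhibition of growth.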 Where a SMILES comes first, the peptide text is derived from it. Bridges are numbered along the chain shown (N, C = ends). [ ]: non-standard residue; d: D form. The star is where a group is joined. ξ: configuration not given here. ξNMePhe(4-NMe2) = CNC(Cc1ccc(N(C)C)cc1)C(=O)O; Picolinoyl(3-OH) = O=C(c1ncccc1O)*; ξPip(4-oxo) = O=C1CCNC(C(=O)O)C1; Phg = N[CH](C(=O)O)c1ccccc1; Abu = CC[CH](N)C(=O)O

Columns and labels:
Experiment in all cases: DTP human tumour cell line panel, 48 h
786-0 renal = test system: 786-0 renal
A498 renal = test system: A498 renal
A549 NSCLC = test system: A549 NSCLC
ACHN renal = test system: ACHN renal
BT-549 breast = test system: BT-549 breast
CAKI-1 renal = test system: CAKI-1 renal
COLO 205 colon = test system: COLO 205 colon
DU-145 prostate = test system: DU-145 prostate
EKVX NSCLC = test system: EKVX NSCLC
HCT-116 colon = test system: HCT-116 colon
HCT-15 colon = test system: HCT-15 colon
HL-60(TB) leukemia = test system: HL-60(TB) leukemia
HOP-62 NSCLC = test system: HOP-62 NSCLC
HOP-92 NSCLC = test system: HOP-92 NSCLC
HS 578T breast = test system: HS 578T breast
HT29 colon = test system: HT29 colon
IGROV1 ovarian = test system: IGROV1 ovarian
K-562 leukemia = test system: K-562 leukemia
KM12 colon = test system: KM12 colon
LOX IMVI melanoma = test system: LOX IMVI melanoma
M14 melanoma = test system: M14 melanoma
MCF7 breast = test system: MCF7 breast
MDA-MB-231 breast = test system: MDA-MB-231 breast
MDA-MB-435 = test system: MDA-MB-435
MOLT-4 leukemia = test system: MOLT-4 leukemia
NCI-H226 lung = test system: NCI-H226 lung
NCI-H23 lung = test system: NCI-H23 lung
NCI-H460 lung = test system: NCI-H460 lung
NCI-H522 lung = test system: NCI-H522 lung
NCI/ADR-RES ovarian = test system: NCI/ADR-RES ovarian
OVCAR-3 ovarian = test system: OVCAR-3 ovarian
OVCAR-5 ovarian = test system: OVCAR-5 ovarian
OVCAR-8 ovarian = test system: OVCAR-8 ovarian
PC-3 prostate = test system: PC-3 prostate
RPMI-8226 leukemia = test system: RPMI-8226 leukemia
RXF 393 renal = test system: RXF 393 renal
SF-268 CNS = test system: SF-268 CNS
SF-295 CNS = test system: SF-295 CNS
SF-539 CNS = test system: SF-539 CNS
SK-MEL-2 melanoma = test system: SK-MEL-2 melanoma
SK-MEL-28 melanoma = test system: SK-MEL-28 melanoma
SK-MEL-5 melanoma = test system: SK-MEL-5 melanoma
SK-OV-3 ovarian = test system: SK-OV-3 ovarian
SN12C renal = test system: SN12C renal
SNB-19 CNS = test system: SNB-19 CNS
SNB-75 CNS = test system: SNB-75 CNS
SR leukemia = test system: SR leukemia
SW-620 colon = test system: SW-620 colon
TK-10 renal = test system: TK-10 renal
U251 CNS = test system: U251 CNS
UACC-257 melanoma = test system: UACC-257 melanoma
UACC-62 melanoma = test system: UACC-62 melanoma
UO-31 renal = test system: UO-31 renal

COC(=O)c1cc2oc(/C=C3\SC(=S)N(NC(C)=O)C3=O)cc2n1Cc1ccccc1
GI50 (786-0 renal): 8.2 µM | TGI (786-0 renal): 18.6 µM | GI50 (A498 renal): 8.07 µM | TGI (A498 renal): 16.8 µM | GI50 (A549 NSCLC): 5.2 µM | TGI (A549 NSCLC): 17.9 µM | GI50 (ACHN renal): 3.68 µM | TGI (ACHN renal): 10.5 µM | GI50 (BT-549 breast): 3.34 µM | TGI (BT-549 breast): 28.7 µM | GI50 (CAKI-1 renal): 2.42 µM | TGI (CAKI-1 renal): 7.79 µM | GI50 (COLO 205 colon): 5.63 µM | TGI (COLO 205 colon): 12.6 µM | GI50 (DU-145 prostate): 1.7 µM | TGI (DU-145 prostate): 9.85 µM | GI50 (EKVX NSCLC): 3.08 µM | TGI (EKVX NSCLC): 15.3 µM | GI50 (HCT-116 colon): 7.62 µM | TGI (HCT-116 colon): 14.3 µM | GI50 (HCT-15 colon): 1.54 µM | TGI (HCT-15 colon): 8.56 µM | GI50 (HL-60(TB) leukemia): 2.14 µM | TGI (HL-60(TB) leukemia): 13.8 µM | GI50 (HOP-62 NSCLC): 9.72 µM | TGI (HOP-62 NSCLC): 20.7 µM | GI50 (HOP-92 NSCLC): 0.196 µM | TGI (HOP-92 NSCLC): 2.59 µM | GI50 (HS 578T breast): 6.61 µM | TGI (HS 578T breast): > 50 µM | GI50 (HT29 colon): 3.47 µM | TGI (HT29 colon): 12.8 µM | GI50 (IGROV1 ovarian): 7.31 µM | TGI (IGROV1 ovarian): > 50 µM | GI50 (K-562 leukemia): 1.08 µM | TGI (K-562 leukemia): > 50 µM | GI50 (KM12 colon): 2.95 µM | TGI (KM12 colon): 12.8 µM | GI50 (LOX IMVI melanoma): 0.769 µM | TGI (LOX IMVI melanoma): 1.6 µM | GI50 (M14 melanoma): 8.04 µM | TGI (M14 melanoma): 16.4 µM | GI50 (MCF7 breast): 2.53 µM | TGI (MCF7 breast): > 50 µM | GI50 (MDA-MB-231 breast): 9.02 µM | TGI (MDA-MB-231 breast): 17.4 µM | GI50 (MDA-MB-435): 1.1 µM | TGI (MDA-MB-435): 4.02 µM | GI50 (MOLT-4 leukemia): 1.97 µM | TGI (MOLT-4 leukemia): > 50 µM | GI50 (NCI-H226 lung): 9.72 µM | TGI (NCI-H226 lung): 22.4 µM | GI50 (NCI-H23 lung): 7.12 µM | TGI (NCI-H23 lung): 16.8 µM | GI50 (NCI-H460 lung): 1.28 µM | TGI (NCI-H460 lung): 37.1 µM | GI50 (NCI-H522 lung): > 50 µM | TGI (NCI-H522 lung): > 50 µM | GI50 (NCI/ADR-RES ovarian): 7.77 µM | TGI (NCI/ADR-RES ovarian): 19.5 µM | GI50 (OVCAR-3 ovarian): 0.53 µM | TGI (OVCAR-3 ovarian): 2.66 µM | GI50 (OVCAR-5 ovarian): 7.36 µM | TGI (OVCAR-5 ovarian): 19.1 µM | GI50 (OVCAR-8 ovarian): 2.68 µM | TGI (OVCAR-8 ovarian): 19.4 µM | GI50 (PC-3 prostate): 1.61 µM | TGI (PC-3 prostate): 9.82 µM | GI50 (RPMI-8226 leukemia): 0.758 µM | TGI (RPMI-8226 leukemia): 5.55 µM | GI50 (RXF 393 renal): 2.81 µM | TGI (RXF 393 renal): 16.8 µM | GI50 (SF-268 CNS): 4.16 µM | TGI (SF-268 CNS): 27.6 µM | GI50 (SF-295 CNS): 2.11 µM | TGI (SF-295 CNS): 15.6 µM | GI50 (SF-539 CNS): 2.79 µM | TGI (SF-539 CNS): 14 µM | GI50 (SK-MEL-2 melanoma): 18.5 µM | TGI (SK-MEL-2 melanoma): > 50 µM | GI50 (SK-MEL-28 melanoma): 9.06 µM | TGI (SK-MEL-28 melanoma): 38.5 µM | GI50 (SK-MEL-5 melanoma): 2.08 µM | TGI (SK-MEL-5 melanoma): 10.7 µM | GI50 (SK-OV-3 ovarian): 6.33 µM | TGI (SK-OV-3 ovarian): 15.5 µM | GI50 (SN12C renal): 11.3 µM | TGI (SN12C renal): 20.8 µM | GI50 (SNB-19 CNS): 6.8 µM | TGI (SNB-19 CNS): 21.2 µM | GI50 (SNB-75 CNS): 7.67 µM | TGI (SNB-75 CNS): 25.4 µM | GI50 (SR leukemia): 1.11 µM | TGI (SR leukemia): > 50 µM | GI50 (SW-620 colon): 8.35 µM | TGI (SW-620 colon): 39 µM | GI50 (TK-10 renal): 6.14 µM | TGI (TK-10 renal): 15.5 µM | GI50 (U251 CNS): 1.37 µM | TGI (U251 CNS): 4.49 µM | GI50 (UACC-257 melanoma): 5.69 µM | TGI (UACC-257 melanoma): 16.4 µM | GI50 (UACC-62 melanoma): 8.91 µM | TGI (UACC-62 melanoma): 16.6 µM | GI50 (UO-31 renal): 8.88 µM | TGI (UO-31 renal): > 50 µM

CCC1NC(=O)C(NC(=O)c2ncccc2O)C(C)OC(=O)C(c2ccccc2)NC(=O)C2CC(=O)CCN2C(=O)C(Cc2ccc(N(C)C)cc2)N(C)C(=O)C2CCCN2C1=O (stereo unspecified) (tested in a mixture with another compound) ({Picolinoyl(3-OH)}-T[Abu]P[ξNMePhe(4-NMe2)][ξPip(4-oxo)][Phg]; ester 1-C; configuration not given here)
TGI (BT-549 breast): 53.2 µM | TGI (HOP-92 NSCLC): 25.5 µM | TGI (NCI-H226 lung): 42.1 µM | TGI (NCI-H23 lung): 34.5 µM | TGI (UACC-257 melanoma): 22.3 µM
